Data published in ChEMBL document CHEMBL1201862, “PubChem BioAssay data set” (2004).
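Results reflect a 48-hour exposure of cells in 96-well plates to compound at five concentrations. GI50: concentration for 50% inhibition of growth.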 The source made the active and inactive calls. No stated cut-off is given here; in the data, active = GI50 up to about 1.1 µM and inactive = higher.

Columns and labels:
Assay in all cases: growth of human tumour cells (NCI), 48 h
[1] = tested on: OVCAR-5
[2] = tested on: UACC-62
[3] = tested on: LOX IMVI
[4] = tested on: Hs-578T
[5] = tested on: SK-MEL-5
[6] = tested on: SF-539
[7] = tested on: HT-29
[8] = tested on: T47D
[9] = tested on: COLO 205
[10] = tested on: NCI-H522
[11] = tested on: NCI/ADR-RES
[12] = tested on: SN12C
[13] = tested on: IGROV-1
[14] = tested on: NCI-H226
[15] = tested on: MDA-MB-231
[16] = tested on: A549
[17] = tested on: SK-MEL-2
[18] = tested on: RXF 393
[19] = tested on: HOP-92
[20] = tested on: EKVX

Measured: GI50

Cc1cccc(/C=N/NC(=S)NC(C)(C)C)n1
inactive: [1] 95.1 µM | [2] 66.4 µM | [3] 66.5 µM | [4] > 100 µM | [5] 56.1 µM | [6] > 100 µM | [7] 3.12 µM | [8] 6.24 µM | [9] 6.14 µM | [10] 14.5 µM | [11] 33.7 µM | [12] > 100 µM | [13] 66.7 µM | [14] 52.4 µM | [15] 34.6 µM | [16] > 100 µM | [17] > 100 µM

COc1cccc(CC2C(=O)N/C(=N\C(C)=O)N2C)c1OC(C)=O (configuration not stated)
inactive: [1] > 100 µM | [2] > 100 µM | [3] > 100 µM | [4] > 100 µM | [5] > 100 µM | [6] > 100 µM | [18] > 100 µM | [7] > 100 µM | [9] > 100 µM | [10] > 100 µM | [19] > 100 µM | [11] > 100 µM | [12] > 100 µM | [13] > 100 µM | [20] 44 µM | [14] > 100 µM | [15] > 100 µM | [16] > 100 µM | [17] > 100 µM

O=C1NC(=S)N/C1=C\c1ccc(Sc2ccccc2C(=O)O)s1
inactive: [1] > 100 µM | [2] 85.3 µM | [3] > 100 µM | [4] > 100 µM | [5] > 100 µM | [18] > 100 µM | [7] > 100 µM | [8] > 100 µM | [9] > 100 µM | [10] 22.1 µM | [11] > 100 µM | [12] > 100 µM | [13] > 100 µM | [20] > 100 µM | [14] > 100 µM | [15] > 100 µM | [17] > 100 µM

CC1=C(C)C(=O)O[C@@H]([C@](C)(O)[C@]2(O)CC[C@@]3(O)[C@@H]4C[C@H](O)[C@]5(O)[C@@H](O)C=CC(=O)[C@]5(C)[C@H]4CC[C@]23C)C1
inactive: [1] > 100 µM | [2] 47.6 µM | [3] 58.5 µM | [4] > 100 µM | [5] > 100 µM | [6] > 100 µM | [18] > 100 µM | [7] 86.3 µM | [8] > 100 µM | [9] > 100 µM | [10] 42.3 µM | [19] > 100 µM | [12] > 100 µM | [13] > 100 µM | [20] > 100 µM | [14] > 100 µM | [15] > 100 µM | [16] > 100 µM | [17] > 100 µM

N=c1[nH]cnc2c1nnn2C1C=CC(COS(N)(=O)=O)C1 (configuration not stated)
inactive: [1] 3.37 µM | [2] 3.37 µM | [3] 4.56 µM | [4] 1.87 µM | [5] 3.13 µM | [6] 1.85 µM | [18] 8.45 µM | [7] 7.33 µM | [8] 3.94 µM | [9] 3.59 µM | [11] 5.2 µM | [12] 15.9 µM | [13] 14.4 µM | [20] 28.9 µM | [14] 4.43 µM | [15] 8.07 µM | [16] 10.5 µM | [17] 3.01 µM

CCCCCCCCCN1CCC(=O)C(C(=O)OC)C1 (configuration not stated)
inactive: [1] 15.3 µM | [2] 12.2 µM | [3] 12.5 µM | [4] 17.1 µM | [5] 14.2 µM | [6] 18.2 µM | [18] 17.1 µM | [7] 10.1 µM | [8] 10.4 µM | [9] 15.1 µM | [10] 8.73 µM | [19] 17.7 µM | [11] 13.6 µM | [12] 16 µM | [20] 15.5 µM | [14] 12.9 µM | [16] 16.6 µM
